EP0089940A1, “Compositions for therapeutic or diagnostic use containing oligosaccharides” (priority 1982, dated 1983)

Columns and labels:
E.coli = assay: Disinfection: removal of bacteria from an infected surface; conditions: 0.1 percent by weight aqueous solution applied by cotton pad onto a surface infected by E.coli
Protocol: By disinfection is here primarily intended removal of bacteria from a surface, for example a wound.
A 0.1 percent by weight aqueous solution of the compound a-D-Galp-(1-3)-D-Gal is prepared and applied by means of a cotton pad onto a surface infected by E.coli.

K88 fimbriae = target: T1, K88 fimbriae (Escherichia coli, UniProt P14190); assay: Inhibition of adherence of I125-labelled K88-fimbriae to brush border membranes from pig small intestine; type: binding, E.coli; conditions: for inhibition at 5000 µg/mL: read-out: inhibited the adherence of K88 fimbriae to the brush border membranes; for inhibited the adherence of K88 fimbriae to the brush border membranes: 0.5 ml oligosaccharide solution 5 mg/ml in PBS, 0.5 ml I125-labelled K88 fimbriae 0.5 mg/ml, 1 ml brush border membranes 2 · 10^6 cells/ml, 37°C
T1 construct: In the experiments I^125-labelled K88 fimbriae at a concentration of 0.5 mg/ml in PBS were used; made in house; host or cells: E. coli O149 K88+ (native fimbriae isolated from the bacteria)
Protocol: In the experiments I^125-labelled K88 fimbriae at a concentration of 0.5 mg/ml in PBS were used. Moreover, brush border membranes prepared according to Sellwood et al at a concentration of 2 · 10^6 cells/ml in PBS were used.
Oligosaccharides tested for their inhibiting ability were dissolved in PBS to a concentration of 5 mg/ml.
In the inhibition tests 0.5 ml I125-labelled K88 fimbriae was incubated with 0.5 ml oligosaccharide solution at 37°C for 30 minutes, 1 ml of the suspension of brush border membranes being then added. After incubation for another 60 minutes at 37°C the mixture was centrifuged for 15 minutes at 600 x g, the radioactivity being then measured in the supernatant. As a control 1 ml of PBS was used.

T1 sequence (P14190 22-283 limits assumed): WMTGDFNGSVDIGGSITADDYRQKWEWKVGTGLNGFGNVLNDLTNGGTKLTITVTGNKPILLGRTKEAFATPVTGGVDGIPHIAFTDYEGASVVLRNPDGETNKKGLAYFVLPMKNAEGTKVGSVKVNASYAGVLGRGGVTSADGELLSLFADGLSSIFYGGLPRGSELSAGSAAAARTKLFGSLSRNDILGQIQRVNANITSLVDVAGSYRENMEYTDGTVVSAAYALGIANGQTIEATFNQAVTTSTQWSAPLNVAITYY

Row | Structure (SMILES) | removal of the bacterium from the surface (E.coli) | inhibition at 5000 µg/mL (K88 fimbriae) [%] | inhibited the adherence of K88 fimbriae to the brush border membranes (K88 fimbriae)
1 | OC[C@H]1O[C@H](O[C@H]2[C@@H](O)[C@@H](CO)OC(O)[C@@H]2O)[C@H](O)[C@@H](O)[C@H]1O (stereo partly drawn) [α-D-Galp-(1-3)-D-Gal] | effective removal | 70 | –
2 | OC[C@H]1O[C@H](O[C@H]2[C@@H](O)[C@@H](CO)O[C@H](O[C@H]3[C@@H](O)[C@@H](CO)OC(O)[C@@H]3O)[C@@H]2O)[C@H](O)[C@@H](O)[C@H]1O (stereo partly drawn) [α-D-Galp-(1-3)-α-D-Galp-(1-3)-D-Gal] | – | 79 | –
3 | OC[C@H]1O[C@H](O[C@H]2[C@@H](O)[C@@H](CO)O[C@H](O[C@H]3[C@@H](O)[C@@H](CO)O[C@H](O[C@H]4[C@@H](O)[C@@H](CO)OC(O)[C@@H]4O)[C@@H]3O)[C@@H]2O)[C@H](O)[C@@H](O)[C@H]1O (stereo partly drawn) [α-D-Galp-(1-3)-α-D-Galp-(1-3)-α-D-Galp-(1-3)-D--Gal] | – | 73 | –
4 | OC[C@H]1O[C@H](O[C@@H]2[C@H](O)[C@@H](O)C(O)O[C@@H]2CO)[C@H](O)[C@@H](O)[C@H]1O (stereo partly drawn) [α-D-Galp-(1-4)-D-Gal, reference compound] | – | – | inactive
5 | OC[C@H]1O[C@H](OC[C@H]2OC(O)[C@H](O)[C@@H](O)[C@H]2O)[C@H](O)[C@@H](O)[C@H]1O (stereo partly drawn) [α-D-Galp-(1-6)-D-Gal, reference compound] | – | – | inactive
